This note sets out measurements from patent publication US11744853B2, “Method of administration and treatment” (Dyve Biosciences, Inc., priority 2017, dated 2023).

One assay concerns MCF-7 tumors. The assay can be described thus: MCF-7 tumor growth in SCID mice, doxorubicin with oral or topical bicarbonate (Example 9). It counts as in vivo. The note with it: B doxorubicin 1.6 mg/kg i.p. days 3, 7, 11; C oral 200 mM bicarbonate; D oral bicarbonate + doxorubicin; E topical formulation 150 μL/day; F topical + doxorubicin.
The subject of a further assay is MCF-7 cells. The assay is described as follows: Doxorubicin uptake and cytotoxicity in MCF-7 cells at medium pH 6.8 or 7.4 (Example 9). In kind it is cell-based.

Description for MCF-7 cells: Medium pH was buffered using non-volatile buffers (10 mM MES, 20 mM HEPES and 10 mM TRICINE) in combination with bicarbonate concentrations that were adjusted to be in equilibrium with 5% ambient carbon dioxide. Twenty-four hours later, regular growth medium was replaced and cells allowed to grow a subsequent 72 h, after which time they were fixed and stained with crystal violet for determination of cell number.
Excerpt for MCF-7 tumors: The start of the bicarbonate treatment was designated as day 1. […] On day 15, animals in Groups C and D were placed back on normal drinking water and animals in Groups E and F ceased received t.i.d. topical applications.
Tumor volumes and animal weights were monitored every 2 days.

In the case of doxorubicin, in the assay on MCF-7 tumors, the “reduction in tumor growth rate” value is given as about 30%. Moreover, in the assay on MCF-7 cells (14C doxorubicin), the “increase in intracellular doxorubicin concentrations on raising the pHe from 6.8 to 7.4” value was found to be 2.56 fold. Further, the “enhancement of cytotoxicity on raising the pHe from 6.8 to 7.4” value with MCF-7 cells (24 h exposure, crystal violet after a subsequent 72 h) was found to be 2.25 fold.
